Data from ChEMBL document CHEMBL5154740, “Novel Aurora A and Protein Kinase C (α, β1, β2, and θ) Multitarget Inhibitors: Impact of Selenium Atoms on the Potency and Selectivity” (J Med Chem, 2022).

Assays:
[1] = target: Receptor tyrosine-protein kinase erbB-2 (Homo sapiens) (UniProt P04626); experiment: Inhibition of ERBB2 (unknown origin) at 50 nM by Z'LYTE screening method relative to control
[2] = target: T1, Aurora kinase A (Homo sapiens) (UniProt O14965); experiment: Inhibition of AURA (unknown origin) at 50 nM by Z'LYTE screening method relative to control
T1 sequence (whole entry): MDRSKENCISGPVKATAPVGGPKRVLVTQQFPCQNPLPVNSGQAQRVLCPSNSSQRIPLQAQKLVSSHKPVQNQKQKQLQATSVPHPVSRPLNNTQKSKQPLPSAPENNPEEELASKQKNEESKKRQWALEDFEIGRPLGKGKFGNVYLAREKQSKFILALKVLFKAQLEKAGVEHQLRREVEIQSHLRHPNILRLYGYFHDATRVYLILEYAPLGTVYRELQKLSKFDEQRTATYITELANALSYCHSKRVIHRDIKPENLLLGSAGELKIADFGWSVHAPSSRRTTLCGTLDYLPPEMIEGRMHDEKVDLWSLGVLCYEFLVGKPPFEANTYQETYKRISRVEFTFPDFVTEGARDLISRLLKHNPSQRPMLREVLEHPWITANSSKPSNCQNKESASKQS

[3] = target: Tyrosine-protein kinase ABL1 (Homo sapiens) (UniProt P00519); experiment: Inhibition of ABL1 (unknown origin) at 50 nM by Z'LYTE screening method relative to control
[4] = target: Protein kinase C gamma type (Homo sapiens) (UniProt P05129); experiment: Inhibition of PKC gamma (unknown origin) at 50 nM by Z'LYTE screening method relative to control
[5] = target: PI3-kinase p110-alpha/p85-alpha (Homo sapiens) (UniProt P27986+P42336); experiment: Inhibition of p110alpha/p85alpha (unknown origin) at 50 nM by Z'LYTE screening method relative to control; format: protein-complex assay
[6] = target: RAC-alpha serine/threonine-protein kinase (Homo sapiens) (UniProt P31749); experiment: Inhibition of AKT1 (unknown origin) at 50 nM by Z'LYTE screening method relative to control
[7] = target: Tyrosine-protein kinase SYK (Homo sapiens) (UniProt P43405); experiment: Inhibition of SYK (unknown origin) at 50 nM by Z'LYTE screening method relative to control
[8] = target: ALK tyrosine kinase receptor (Homo sapiens) (UniProt Q9UM73); experiment: Inhibition of ALK (unknown origin) at 50 nM by Z'LYTE screening method relative to control
[9] = target: Vascular endothelial growth factor receptor 1 (Homo sapiens) (UniProt P17948); experiment: Inhibition of FLT1/VEGFR1(unknown origin) at 50 nM by Z'LYTE screening method relative to control
[10] = target: Dual specificity mitogen-activated protein kinase kinase 1 (Homo sapiens) (UniProt Q02750); experiment: Inhibition of MAP2K1 (unknown origin) at 50 nM by Z'LYTE screening method relative to control
[11] = target: Protein kinase C theta type (Homo sapiens, UniProt Q04759); experiment: Inhibition of PKCtheta (unknown origin) at 50 nM by Z'LYTE screening method relative to control
[12] = target: Protein kinase C beta type (Homo sapiens) (UniProt P05771); experiment: Inhibition of PKCbeta2 (unknown origin) at 50 nM by Z'LYTE screening method relative to control
Protein kinase C beta type (Homo sapiens), sequence (P05771 2-671 limits assumed): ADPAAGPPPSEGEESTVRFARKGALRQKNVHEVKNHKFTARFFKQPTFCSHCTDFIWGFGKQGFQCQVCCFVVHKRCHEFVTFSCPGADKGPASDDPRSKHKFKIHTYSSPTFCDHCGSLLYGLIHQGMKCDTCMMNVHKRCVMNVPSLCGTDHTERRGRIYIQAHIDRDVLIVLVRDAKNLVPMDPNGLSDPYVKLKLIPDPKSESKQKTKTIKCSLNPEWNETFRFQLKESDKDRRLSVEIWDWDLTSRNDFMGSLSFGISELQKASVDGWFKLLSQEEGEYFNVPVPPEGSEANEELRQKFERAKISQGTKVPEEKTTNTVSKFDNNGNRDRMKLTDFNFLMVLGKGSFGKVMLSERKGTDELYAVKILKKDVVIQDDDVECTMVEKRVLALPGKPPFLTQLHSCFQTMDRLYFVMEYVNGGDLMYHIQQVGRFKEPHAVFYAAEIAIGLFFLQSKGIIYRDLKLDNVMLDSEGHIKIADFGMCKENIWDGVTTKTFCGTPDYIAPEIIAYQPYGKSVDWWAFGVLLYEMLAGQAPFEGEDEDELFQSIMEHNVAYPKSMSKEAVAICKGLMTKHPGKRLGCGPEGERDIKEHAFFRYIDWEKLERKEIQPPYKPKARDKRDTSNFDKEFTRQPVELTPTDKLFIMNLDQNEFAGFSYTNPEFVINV

[13] = target: Proto-oncogene tyrosine-protein kinase receptor Ret (Homo sapiens) (UniProt P07949); experiment: Inhibition of RET (unknown origin) at 50 nM by Z'LYTE screening method relative to control
[14] = target: T2, Protein kinase C zeta type (Homo sapiens) (UniProt Q05513); experiment: Inhibition of PKCzeta (unknown origin) at 50 nM by Z'LYTE screening method relative to control
T2 sequence (whole entry): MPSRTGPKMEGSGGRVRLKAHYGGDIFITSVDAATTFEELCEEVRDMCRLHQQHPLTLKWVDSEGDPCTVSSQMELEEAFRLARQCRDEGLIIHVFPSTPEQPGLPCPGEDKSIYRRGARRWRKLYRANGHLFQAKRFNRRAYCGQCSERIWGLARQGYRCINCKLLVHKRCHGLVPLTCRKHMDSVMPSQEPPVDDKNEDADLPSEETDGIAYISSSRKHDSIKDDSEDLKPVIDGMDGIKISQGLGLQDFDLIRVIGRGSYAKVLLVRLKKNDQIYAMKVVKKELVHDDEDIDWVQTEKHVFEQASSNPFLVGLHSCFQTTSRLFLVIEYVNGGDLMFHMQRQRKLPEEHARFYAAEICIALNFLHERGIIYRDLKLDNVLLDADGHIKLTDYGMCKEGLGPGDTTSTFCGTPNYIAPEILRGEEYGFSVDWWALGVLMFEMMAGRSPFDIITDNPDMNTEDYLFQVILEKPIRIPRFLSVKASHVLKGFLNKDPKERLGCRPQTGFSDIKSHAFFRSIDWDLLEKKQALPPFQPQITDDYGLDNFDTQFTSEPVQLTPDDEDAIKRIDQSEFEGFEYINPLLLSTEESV

[15] = target: Aurora kinase B (Homo sapiens) (UniProt Q96GD4); experiment: Inhibition of AURB (unknown origin) at 50 nM by Z'LYTE screening method relative to control
Aurora kinase B (Homo sapiens), sequence (Q96GD4 whole entry): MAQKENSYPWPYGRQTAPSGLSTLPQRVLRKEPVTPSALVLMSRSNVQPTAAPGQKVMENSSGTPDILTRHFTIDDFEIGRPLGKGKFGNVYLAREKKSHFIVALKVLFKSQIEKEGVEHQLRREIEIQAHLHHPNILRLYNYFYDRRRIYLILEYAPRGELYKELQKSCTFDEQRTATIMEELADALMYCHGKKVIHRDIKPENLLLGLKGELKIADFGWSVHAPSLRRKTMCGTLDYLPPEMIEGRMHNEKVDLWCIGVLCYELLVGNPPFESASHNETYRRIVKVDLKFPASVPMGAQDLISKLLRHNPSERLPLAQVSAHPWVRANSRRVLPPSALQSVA

[16] = target: Proto-oncogene tyrosine-protein kinase Src (Homo sapiens) (UniProt P12931); experiment: Inhibition of SRC (unknown origin) at 50 nM by Z'LYTE screening method relative to control
[17] = target: DNA-dependent protein kinase catalytic subunit (Homo sapiens) (UniProt P78527); experiment: Inhibition of DNA-PK (unknown origin) at 50 nM by Z'LYTE screening method relative to control
DNA-dependent protein kinase catalytic subunit (Homo sapiens), sequence (P78527 whole entry): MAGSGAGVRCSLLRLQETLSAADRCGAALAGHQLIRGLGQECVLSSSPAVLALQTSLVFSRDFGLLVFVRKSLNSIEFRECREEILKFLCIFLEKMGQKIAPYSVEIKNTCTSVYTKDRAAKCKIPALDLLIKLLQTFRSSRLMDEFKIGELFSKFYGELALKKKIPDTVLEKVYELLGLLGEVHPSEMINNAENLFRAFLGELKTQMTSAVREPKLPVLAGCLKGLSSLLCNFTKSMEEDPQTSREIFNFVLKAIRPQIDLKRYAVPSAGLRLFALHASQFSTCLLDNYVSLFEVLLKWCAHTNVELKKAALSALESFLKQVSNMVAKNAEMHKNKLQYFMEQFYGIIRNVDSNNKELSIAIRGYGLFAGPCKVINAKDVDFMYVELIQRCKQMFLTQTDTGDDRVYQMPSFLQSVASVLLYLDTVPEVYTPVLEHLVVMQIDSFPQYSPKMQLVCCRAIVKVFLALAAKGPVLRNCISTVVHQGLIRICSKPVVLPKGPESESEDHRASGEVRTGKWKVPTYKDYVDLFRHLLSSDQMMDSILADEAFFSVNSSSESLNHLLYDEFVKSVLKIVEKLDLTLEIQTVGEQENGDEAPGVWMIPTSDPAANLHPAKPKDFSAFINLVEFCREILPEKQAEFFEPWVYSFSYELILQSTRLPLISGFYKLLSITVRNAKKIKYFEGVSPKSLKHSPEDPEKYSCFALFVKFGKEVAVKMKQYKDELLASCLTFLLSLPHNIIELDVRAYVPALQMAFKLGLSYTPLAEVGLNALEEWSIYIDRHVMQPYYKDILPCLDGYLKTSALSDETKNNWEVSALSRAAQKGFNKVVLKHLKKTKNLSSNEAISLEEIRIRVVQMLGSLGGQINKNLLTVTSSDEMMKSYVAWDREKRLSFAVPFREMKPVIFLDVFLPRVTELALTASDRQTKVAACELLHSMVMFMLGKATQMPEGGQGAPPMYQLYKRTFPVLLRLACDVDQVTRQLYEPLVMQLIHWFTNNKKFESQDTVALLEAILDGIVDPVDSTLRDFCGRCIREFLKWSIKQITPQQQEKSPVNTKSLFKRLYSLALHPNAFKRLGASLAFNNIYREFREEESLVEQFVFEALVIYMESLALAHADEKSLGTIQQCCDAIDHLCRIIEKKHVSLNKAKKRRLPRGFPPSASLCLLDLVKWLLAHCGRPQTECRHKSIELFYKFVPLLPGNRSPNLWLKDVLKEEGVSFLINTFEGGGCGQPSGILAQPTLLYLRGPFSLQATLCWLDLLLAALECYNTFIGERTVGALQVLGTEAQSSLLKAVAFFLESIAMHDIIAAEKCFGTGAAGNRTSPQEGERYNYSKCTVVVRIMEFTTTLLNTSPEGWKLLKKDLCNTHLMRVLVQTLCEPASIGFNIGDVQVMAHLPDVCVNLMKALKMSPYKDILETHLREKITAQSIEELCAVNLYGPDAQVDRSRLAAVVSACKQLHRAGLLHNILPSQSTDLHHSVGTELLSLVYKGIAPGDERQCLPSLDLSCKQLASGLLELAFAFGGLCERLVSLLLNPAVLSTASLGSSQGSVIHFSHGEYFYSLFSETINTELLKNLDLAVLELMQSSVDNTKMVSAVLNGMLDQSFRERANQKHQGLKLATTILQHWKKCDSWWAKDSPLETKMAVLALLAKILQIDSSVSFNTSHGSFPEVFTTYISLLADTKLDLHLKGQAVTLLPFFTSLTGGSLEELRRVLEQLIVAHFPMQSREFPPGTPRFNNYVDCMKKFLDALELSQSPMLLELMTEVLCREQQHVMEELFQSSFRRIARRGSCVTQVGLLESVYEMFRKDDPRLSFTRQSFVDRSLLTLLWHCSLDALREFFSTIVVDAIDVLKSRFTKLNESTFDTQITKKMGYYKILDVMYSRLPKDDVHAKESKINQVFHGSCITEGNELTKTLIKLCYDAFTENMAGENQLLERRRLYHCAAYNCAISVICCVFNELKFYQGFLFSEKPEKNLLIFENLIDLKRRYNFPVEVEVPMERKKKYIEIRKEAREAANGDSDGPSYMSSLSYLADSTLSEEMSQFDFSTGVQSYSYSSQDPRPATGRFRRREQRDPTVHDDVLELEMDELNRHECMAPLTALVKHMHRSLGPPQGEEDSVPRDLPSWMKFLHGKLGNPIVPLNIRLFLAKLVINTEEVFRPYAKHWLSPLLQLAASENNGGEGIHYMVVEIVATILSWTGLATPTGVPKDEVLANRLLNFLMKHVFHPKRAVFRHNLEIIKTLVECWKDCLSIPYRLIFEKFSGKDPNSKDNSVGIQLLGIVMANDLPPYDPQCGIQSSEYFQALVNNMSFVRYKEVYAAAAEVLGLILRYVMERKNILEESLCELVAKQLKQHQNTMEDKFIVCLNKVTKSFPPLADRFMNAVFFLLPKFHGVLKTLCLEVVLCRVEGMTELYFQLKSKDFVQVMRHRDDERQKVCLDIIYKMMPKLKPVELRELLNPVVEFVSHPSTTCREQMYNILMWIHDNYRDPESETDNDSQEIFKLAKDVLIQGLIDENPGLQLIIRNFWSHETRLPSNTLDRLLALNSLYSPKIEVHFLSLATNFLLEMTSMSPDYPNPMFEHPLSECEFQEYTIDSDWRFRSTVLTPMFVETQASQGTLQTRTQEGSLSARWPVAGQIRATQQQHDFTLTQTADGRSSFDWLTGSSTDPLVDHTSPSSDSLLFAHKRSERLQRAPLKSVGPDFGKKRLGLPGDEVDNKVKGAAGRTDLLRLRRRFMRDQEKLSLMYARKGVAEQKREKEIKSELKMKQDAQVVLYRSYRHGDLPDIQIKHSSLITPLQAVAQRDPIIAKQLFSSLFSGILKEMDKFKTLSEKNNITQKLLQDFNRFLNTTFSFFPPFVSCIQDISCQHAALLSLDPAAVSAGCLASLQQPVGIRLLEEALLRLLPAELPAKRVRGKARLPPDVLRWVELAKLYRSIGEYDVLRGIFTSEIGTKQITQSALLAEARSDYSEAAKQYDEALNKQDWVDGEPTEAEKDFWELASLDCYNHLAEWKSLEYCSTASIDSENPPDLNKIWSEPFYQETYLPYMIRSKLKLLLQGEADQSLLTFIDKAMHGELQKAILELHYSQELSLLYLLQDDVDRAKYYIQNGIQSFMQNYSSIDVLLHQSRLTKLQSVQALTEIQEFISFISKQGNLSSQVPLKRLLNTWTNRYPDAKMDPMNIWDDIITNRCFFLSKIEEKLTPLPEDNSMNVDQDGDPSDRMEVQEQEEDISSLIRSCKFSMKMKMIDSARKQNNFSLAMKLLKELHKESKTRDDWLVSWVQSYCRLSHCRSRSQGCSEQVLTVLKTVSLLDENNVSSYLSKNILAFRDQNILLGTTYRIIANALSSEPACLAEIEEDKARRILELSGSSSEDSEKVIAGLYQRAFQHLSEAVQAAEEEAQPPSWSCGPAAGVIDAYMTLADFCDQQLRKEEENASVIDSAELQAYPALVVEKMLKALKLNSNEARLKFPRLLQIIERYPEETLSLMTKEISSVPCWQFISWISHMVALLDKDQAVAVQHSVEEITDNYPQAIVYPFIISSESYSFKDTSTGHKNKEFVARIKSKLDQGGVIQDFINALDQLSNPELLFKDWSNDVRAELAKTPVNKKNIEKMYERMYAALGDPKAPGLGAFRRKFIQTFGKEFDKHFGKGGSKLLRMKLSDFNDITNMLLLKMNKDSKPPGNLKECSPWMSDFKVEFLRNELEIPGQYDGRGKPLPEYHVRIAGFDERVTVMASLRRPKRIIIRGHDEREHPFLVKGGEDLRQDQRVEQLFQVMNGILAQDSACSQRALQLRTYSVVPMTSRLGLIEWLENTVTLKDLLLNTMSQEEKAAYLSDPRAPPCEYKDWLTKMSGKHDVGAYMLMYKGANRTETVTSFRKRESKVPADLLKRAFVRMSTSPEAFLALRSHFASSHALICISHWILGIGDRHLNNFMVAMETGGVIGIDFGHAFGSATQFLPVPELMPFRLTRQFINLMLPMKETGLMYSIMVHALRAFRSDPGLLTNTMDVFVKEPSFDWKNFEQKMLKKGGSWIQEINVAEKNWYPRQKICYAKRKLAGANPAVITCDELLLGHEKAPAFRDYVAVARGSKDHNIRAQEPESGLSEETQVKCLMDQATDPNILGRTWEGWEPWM

[18] = species: Homo sapiens; experiment: Inhibition of CDK1/Cyclin B (unknown origin) at 50 nM by Z'LYTE screening method relative to control
[19] = target: Protein kinase C delta type (Homo sapiens) (UniProt Q05655); experiment: Inhibition of PKCdelta (unknown origin) at 50 nM by Z'LYTE screening method relative to control
[20] = target: Protein kinase C beta type (Homo sapiens) (UniProt P05771); experiment: Inhibition of PKCbeta1 (unknown origin) at 50 nM by Z'LYTE screening method relative to control
[21] = tested on: MDA-MB-231; experiment: Cytotoxicity against human MDA-MB-231/M cells assessed as reduction in cell viability incubated for 96 hrs by MTT assay; format: functional, cell-based; conditions: MDA-MB-231, 96 h
[22] = target: Ribosomal protein S6 kinase beta-1 (Homo sapiens) (UniProt P23443); experiment: Inhibition of p70S6K (unknown origin) at 50 nM by Z'LYTE screening method relative to control

Structure (SMILES) | inhibition [1] [%] | inhibition [2] [%] | inhibition [3] [%] | inhibition [4] [%] | inhibition [5] [%] | inhibition [6] [%] | inhibition [7] [%] | inhibition [8] [%] | inhibition [9] [%] | inhibition [10] [%] | inhibition [11] [%] | inhibition [12] [%] | inhibition [13] [%] | inhibition [14] [%] | inhibition [15] [%] | inhibition [16] [%] | inhibition [17] [%] | inhibition [18] [%] | inhibition [19] [%] | inhibition [20] [%] | further results
O=c1c2ccccc2[se]n1-c1nc(N[C@H]2CC[Se]C2)c2nc[nH]c2n1 | 0 | 87 | 1 | 47 | 0 | 0 | 0 | 0 | 0 | 10 | 98 | 8 | 7 | 12 | 0 | 0 | 0 | 0 | 0 | 95 | IC50 [21]: 1.2 µM; inhibition [22]: 3%
O=c1c2ccccc2[se]n1-c1nc(Nc2ccccc2)c2nc[nH]c2n1 | 0 | 6 | 0 | 0 | 0 | 2 | 0 | 1 | 1 | 0 | 12 | 28 | 4 | 4 | 1 | 1 | 0 | 0 | 0 | 6 | IC50 [21]: 32.2 µM; inhibition [22]: 0%
O=c1c2ccccc2[se]n1-c1nc(N[C@@H]2C[C@H]3CC[C@@H]2C3)c2nc[nH]c2n1 | 0 | 4 | 2 | 0 | 0 | 0 | 3 | 0 | 1 | 2 | 15 | 62 | 6 | 7 | 4 | 2 | 0 | 0 | 0 | 0 | IC50 [21]: 32.4 µM; inhibition [22]: 2%
O=C1c2ccccc2CN1c1nc(N[C@H]2CC[Se]C2)c2nc[nH]c2n1 | 1 | 9 | 0 | 3 | 0 | 1 | 1 | 0 | 1 | 3 | 14 | 9 | 2 | 6 | 9 | 0 | 0 | 0 | 0 | 7 | IC50 [21]: 26.1 µM; inhibition [22]: 2%
CCCNc1nc(-n2[se]c3ccccc3c2=O)nc2[nH]cnc12 | 0 | 4 | 0 | 1 | 0 | 2 | 2 | 1 | 0 | 2 | 25 | 95 | 0 | 3 | 2 | 2 | 0 | 1 | 0 | 2 | IC50 [21]: 23.2 µM; inhibition [22]: 0%
O=c1c2ccccc2[se]n1-c1nc(N[C@H]2CCOC2)c2nc[nH]c2n1 | 0 | 71 | 8 | 25 | 0 | 1 | 2 | 1 | 0 | 2 | 85 | 7 | 7 | 2 | 0 | 3 | 0 | 1 | 0 | 84 | IC50 [21]: 2.3 µM; inhibition [22]: 6%

Second part, led by results:

inhibition [1] [%] | inhibition [2] [%] | inhibition [3] [%] | inhibition [4] [%] | inhibition [5] [%] | inhibition [6] [%] | inhibition [7] [%] | inhibition [8] [%] | inhibition [9] [%] | inhibition [10] [%] | inhibition [11] [%] | inhibition [12] [%] | inhibition [13] [%] | inhibition [14] [%] | inhibition [15] [%] | inhibition [16] [%] | inhibition [17] [%] | inhibition [18] [%] | inhibition [19] [%] | inhibition [20] [%] | Structure (SMILES) | further results
0 | 84 | 1 | 45 | 0 | 2 | 5 | 1 | 2 | 6 | 62 | 62 | 13 | 9 | 7 | 3 | 0 | 0 | 0 | 59 | O=c1c2ccccc2[se]n1-c1nc(NC2CCCCC2)c2nc[nH]c2n1 | IC50 [21]: 10.2 µM; inhibition [22]: 1%
0 | 1 | 1 | 2 | 0 | 1 | 1 | 2 | 1 | 1 | 7 | 9 | 2 | 6 | 1 | 0 | 0 | 0 | 0 | 0 | O=C1c2ccccc2CN1c1nc(NC2CCCC2)c2nc[nH]c2n1 | IC50 [21]: 24.7 µM; inhibition [22]: 1%
0 | 3 | 1 | 1 | 0 | 2 | 2 | 0 | 2 | 5 | 12 | 25 | 2 | 7 | 5 | 0 | 0 | 1 | 0 | 5 | CCN(CC)CCCC(C)Nc1nc(N2Cc3ccccc3C2=O)nc2[nH]cnc12 (stereo not drawn) | IC50 [21]: 22.1 µM; inhibition [22]: 1%
